Test results as given in the NIST ThermoML archive (doi:10.1016/j.jct.2013.03.013).

Details: Liquid, Vibrating wire viscometry

Cc1ccccc1 [toluene]
viscosity [mPa·s]
Details | 273.13 K | 298.15 K | 323.16 K | 343.16 K | 363.16 K
1000 kPa | 0.7735 | 0.5573 | 0.4222 | 0.3495 | 0.2941
5000 kPa | 0.7996 | 0.5744 | 0.4359 | 0.3611 | 0.3047
10000 kPa | 0.832 | 0.5969 | 0.4531 | 0.3757 | 0.3173
20000 kPa | 0.8994 | 0.6394 | 0.4894 | 0.4054 | 0.3436
30000 kPa | 0.969 | 0.6892 | 0.5242 | 0.4367 | 0.3694

C=C(F)C(F)(F)F [2,3,3,3-tetrafluoro-1-propene]
Details | viscosity [mPa·s]
243.16 K, 99 kPa | 0.2892
243.16 K, 1000 kPa | 0.2913
243.16 K, 3000 kPa | 0.2982
243.16 K, 5000 kPa | 0.3049
243.16 K, 10000 kPa | 0.3212
243.16 K, 15000 kPa | 0.3397
243.16 K, 20000 kPa | 0.3572
243.16 K, 25000 kPa | 0.3748
243.16 K, 30000 kPa | 0.3927
253.16 K, 151 kPa | 0.2554
253.16 K, 1000 kPa | 0.258
253.16 K, 3000 kPa | 0.2638
253.16 K, 5000 kPa | 0.2708
253.16 K, 10000 kPa | 0.2877
253.16 K, 15000 kPa | 0.3038
253.16 K, 20000 kPa | 0.3201
253.16 K, 25000 kPa | 0.3362
253.16 K, 30000 kPa | 0.3517
263.16 K, 222 kPa | 0.2265
263.16 K, 1000 kPa | 0.229
263.16 K, 3000 kPa | 0.2355
263.16 K, 5000 kPa | 0.242
263.16 K, 10000 kPa | 0.2581
263.16 K, 15000 kPa | 0.2731
263.16 K, 20000 kPa | 0.2894
263.16 K, 25000 kPa | 0.3035
263.16 K, 30000 kPa | 0.3178
273.15 K, 316 kPa | 0.2019
273.15 K, 1000 kPa | 0.2033
273.15 K, 3000 kPa | 0.21
273.15 K, 5000 kPa | 0.2162
273.15 K, 10000 kPa | 0.2313
273.15 K, 15000 kPa | 0.2457
273.15 K, 20000 kPa | 0.2601
273.15 K, 25000 kPa | 0.2744
273.15 K, 30000 kPa | 0.2874
283.14 K, 438 kPa | 0.1796
283.14 K, 1000 kPa | 0.1815
283.14 K, 3000 kPa | 0.1873
283.14 K, 5000 kPa | 0.194
283.14 K, 10000 kPa | 0.2079
283.14 K, 15000 kPa | 0.2222
283.14 K, 20000 kPa | 0.2356
283.14 K, 25000 kPa | 0.2487
283.14 K, 30000 kPa | 0.262
293.15 K, 592 kPa | 0.1612
293.15 K, 1000 kPa | 0.1636
293.15 K, 3000 kPa | 0.169
293.15 K, 5000 kPa | 0.1755
293.15 K, 10000 kPa | 0.1885
293.15 K, 15000 kPa | 0.2018
293.15 K, 20000 kPa | 0.2152
293.15 K, 25000 kPa | 0.2287
293.15 K, 30000 kPa | 0.2414
303.15 K, 784 kPa | 0.1425
303.15 K, 1000 kPa | 0.1434
303.15 K, 3000 kPa | 0.149
303.15 K, 5000 kPa | 0.1554
303.15 K, 10000 kPa | 0.1696
303.15 K, 15000 kPa | 0.1834
303.15 K, 20000 kPa | 0.1965
303.15 K, 25000 kPa | 0.2092
303.15 K, 30000 kPa | 0.2215
313.14 K, 1019 kPa | 0.1259
313.14 K, 3000 kPa | 0.1324
313.14 K, 5000 kPa | 0.1392
313.14 K, 10000 kPa | 0.1543
313.14 K, 15000 kPa | 0.1681
313.14 K, 20000 kPa | 0.1808
313.14 K, 25000 kPa | 0.1929
313.14 K, 30000 kPa | 0.2046
323.16 K, 1303 kPa | 0.1103
323.16 K, 3000 kPa | 0.1169
323.16 K, 5000 kPa | 0.1239
323.16 K, 10000 kPa | 0.1396
323.16 K, 15000 kPa | 0.1536
323.16 K, 20000 kPa | 0.1664
323.16 K, 25000 kPa | 0.1783
323.16 K, 30000 kPa | 0.1893
333.16 K, 1643 kPa | 0.0965
333.16 K, 3000 kPa | 0.1031
333.16 K, 5000 kPa | 0.1108
333.16 K, 10000 kPa | 0.127
333.16 K, 15000 kPa | 0.141
333.16 K, 20000 kPa | 0.1537
333.16 K, 25000 kPa | 0.1656
333.16 K, 30000 kPa | 0.1762
343.16 K, 2046 kPa | 0.0832
343.16 K, 3000 kPa | 0.0885
343.16 K, 5000 kPa | 0.0976
343.16 K, 10000 kPa | 0.115
343.16 K, 15000 kPa | 0.1291
343.16 K, 20000 kPa | 0.1417
343.16 K, 25000 kPa | 0.1534
343.16 K, 30000 kPa | 0.1644
353.16 K, 2521 kPa | 0.0685
353.16 K, 3000 kPa | 0.0731
353.16 K, 5000 kPa | 0.0846
353.16 K, 10000 kPa | 0.1035
353.16 K, 15000 kPa | 0.1189
353.16 K, 20000 kPa | 0.1314
353.16 K, 25000 kPa | 0.1424
353.16 K, 30000 kPa | 0.1527
363.16 K, 3081 kPa | 0.0521
363.16 K, 5000 kPa | 0.0732
363.16 K, 10000 kPa | 0.093
363.16 K, 15000 kPa | 0.109
363.16 K, 20000 kPa | 0.1211
363.16 K, 25000 kPa | 0.1322
363.16 K, 30000 kPa | 0.1429
